Assay in all cases: inhibition of tumour cell growth, NCI panel, 48 h
Assay [1] deals with 786-0.
Assay [2] has as its system HCC 2998.
Assay [3] deals with HCT-15.
The subject of assay [4] is Hs-578T.
Assay [5] concerns K562.
The subject of assay [6] is MDA-MB-231.
Assay [7] concerns MOLT-4.
Assay [8] has as its system NCI-H460.
The test system of assay [9] is OVCAR-5.
Assay [10] has as its system RPMI-8226.
Assay [11] concerns SW-620.
The test system of assay [12] is U-251.
The subject of assay [13] is UACC-62.
In assay [14] the test system is HT-29.
In assay [15] the test system is NCI/ADR-RES.
Assay [16] deals with OVCAR-8.

Where “and” joins values, the source holds several entries; their conditions need not be identical. Identical values can stand only once.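 Compound exposure: 48 hours, 5 concentrations, 96-well plates. At the GI50, growth is halved.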 Calls of active or inactive are those of the source. No stated cut-off is given here; in the data, active = GI50 up to about 1.1 µM and inactive = higher.

For the molecule `CCOc1ccccc1-c1nc2c(s1)C(=O)c1ccccc1C2=O`, the GI50 is 16.9 µM (inactive) in assay [1]; 14.5 µM (inactive) in assay [2]; 25.7 µM in assay [3]; 19 µM (inactive) in [4]; 4.61 µM (inactive) in assay [5]; 2.84 µM (inactive) in [6]. Also, the GI50 was 3.53 µM (inactive) in [7]; 18.7 µM (inactive) in assay [8]; 19.7 µM (inactive) in assay [9]; 7.26 µM (inactive) in assay [10]; 8 µM (inactive) in assay [11]; 14.6 µM (inactive) in assay [12]. In addition, the GI50 in assay [13] is 3.78 µM (inactive).
For the molecule `O=C(/C=C1\Nc2ccc([N+](=O)[O-])cc2N=C1NC12CC3CC(CC(C3)C1)C2)c1ccccc1`, the GI50 is 4.21 µM (inactive) in [1]; > 10 µM (inactive) in assay [2]; over 10 µM in [3]; > 10 µM (inactive) in assay [14]; 3.76 µM (inactive) in assay [4]; 4.7 µM (inactive) in [6]. Moreover, the GI50 in [8] is > 10 µM (inactive); in assay [15], > 10 µM (inactive); in assay [9], > 10 µM (inactive); in assay [16] it was 9.64 µM (inactive); in assay [11], > 10 µM (inactive); in assay [12], 7.16 µM (inactive).
`CC(C)/C(Cl)=N\OC(=O)Nc1cccc(Cl)c1`: the GI50 in assay [1] is 15.7 µM (inactive); in [2], 17 µM (inactive); in assay [3], 16.1 µM; in [14], 15 µM (inactive); in assay [4], 28.3 µM (inactive); in assay [5], 2.07 µM (inactive). In addition, the GI50 in assay [6] is 15.2 µM (inactive); in assay [7] it was 2.65 µM (inactive); in assay [8], 13.7 µM (inactive); in assay [15], 10.6 µM (inactive); in [9] it was 13.5 µM (inactive); in assay [16], 15.4 µM (inactive). Besides, the GI50 in assay [10] is 4.45 µM (inactive); in assay [11] it was 2.97 µM (inactive); in assay [12] it was 18.4 µM (inactive); in assay [13] it was 20.2 µM (inactive).
For the molecule `O=C(/C=C\c1ccccc1-c1ccccc1)c1ccccc1`, the GI50 was > 100 µM (inactive) in [1]; > 100 µM (inactive) in assay [2]; over 100 µM in assay [3]; > 100 µM (inactive) in [14]; > 100 µM (inactive) in assay [4]; > 100 µM (inactive) in [5]. The GI50 in [6] was 12.2 µM (inactive); in assay [7], 92 µM (inactive); in assay [8], > 100 µM (inactive); in assay [15], > 100 µM (inactive); in assay [9] it was > 100 µM (inactive); in assay [16], > 100 µM (inactive). Moreover, the GI50 in assay [10] was 30.8 µM (inactive); in [11], > 100 µM (inactive); in assay [12], > 100 µM (inactive); in [13], > 100 µM (inactive).
With `c1csc(-c2sc(-c3ccsc3)cc2Cc2ccsc2)c1`, the GI50 is > 10 µM (inactive) in assay [1]; > 10 µM (inactive) in assay [2]; over 10 µM in [3]; > 10 µM (inactive) in assay [14]; > 10 µM (inactive) in assay [5]; > 10 µM (inactive) in assay [6]. The GI50 in assay [7], in assay [16], in [10], in assay [11] and in assay [13] was > 10 µM (inactive) throughout.
With `O=C1/C(=C/c2ccco2)NC(=S)N1CN1CCCCC1`, the GI50 is 70.1 µM (inactive) in assay [1]; 28.6 µM in assay [3]; 25.8 µM (inactive) in [14]; 83.6 µM (inactive) in [4]; 60.1 µM (inactive) in assay [5]; > 100 µM (inactive) in [6]. In addition, the GI50 was > 100 µM (inactive) in [7]; 10.5 µM (inactive) in assay [15]; > 100 µM (inactive) in assay [9]; 43.7 µM (inactive) in assay [16]; 28.8 µM (inactive) in assay [10]; 38.5 µM (inactive) in assay [11]. In addition, the GI50 was > 100 µM (inactive) in [12] and 57.9 µM (inactive) in assay [13].
Turning to `COc1ccc(/C=N/N=C(\N)NO)c(OC)c1OC`, the GI50 is 18.5 µM (inactive) in assay [1]; 17.2 µM (inactive) in assay [2]; 35.2 µM in assay [3]; 20.8 µM (inactive) in assay [14]; > 100 µM (inactive) in [4]; 23.2 µM (inactive) in assay [5]. For the same molecule, the GI50 in assay [6] was 65.2 µM (inactive); in assay [7], 42.3 µM (inactive); in assay [8], 33 µM (inactive); in assay [15], 14 µM (inactive); in [9] it was 23.4 µM (inactive); in [16], 15 µM (inactive). Besides, the GI50 in assay [10] was 31.6 µM (inactive); in assay [11], 46.2 µM (inactive); in assay [12], 42.1 µM (inactive); in assay [13], 20.6 µM (inactive).
Regarding `O=C(NN=C1CCN(Cc2ccccc2)CC1)C(O)(c1ccccc1)c1ccccc1`, the GI50 in assay [1] was > 100 µM (inactive); in assay [2] it was > 100 µM (inactive); in assay [3] it was over 100 µM; in assay [14], > 100 µM (inactive); in assay [4], > 100 µM (inactive); in assay [6], > 100 µM (inactive). The GI50 in assay [7], in assay [15], in assay [9], in [16], in assay [10] and in assay [11] was > 100 µM (inactive) throughout. Further, the GI50 in [12] and in assay [13] was > 100 µM (inactive) in each case.
`CC(=O)NC(Cc1ccc(OP(=O)(OCc2ccc([N+](=O)[O-])o2)N(C)CCCCCl)cc1)C(=O)NC(C)c1ccc(OCC2CCCCC2)c(C(N)=O)c1` (stereo not drawn): the GI50 in assay [1] is 3.37 µM (inactive); in [2], 1.82 µM (inactive); in assay [3] it was 20.4 µM; in assay [14] it was 2.25 µM (inactive); in [4], 2.14 µM (inactive); in assay [5], 3.91 µM (inactive). Further, the GI50 in assay [6] was 2.05 µM (inactive); in assay [7] it was 3.53 µM (inactive); in assay [8], 3.44 µM (inactive); in assay [15], 31.2 µM (inactive); in [9] it was 7.35 µM (inactive); in [16], 7.48 µM (inactive). In addition, the GI50 in assay [10] is 1.72 µM (inactive); in assay [11], 4.11 µM (inactive); in assay [12], 2.48 µM (inactive); in assay [13], 2.31 µM (inactive).
Consider `COC(=O)[C@@H]1CC(C(C[N+](=O)[O-])c2ccc(O[Si](C)(C)C(C)(C)C)cc2)C(=O)N1C(=O)OC(C)(C)C` (stereo partly drawn), for which the GI50 in assay [1] is > 100 µM (inactive); in assay [4] it was > 100 µM (inactive); in assay [5] it was 22.9 µM (inactive) and 32.4 µM (inactive); in [6], > 100 µM (inactive); in assay [9] it was > 100 µM (inactive); in assay [16], > 100 µM (inactive). For the same molecule, the GI50 was > 100 µM (inactive) in [11]; > 100 µM (inactive) and 78 µM (inactive) in [12].
Regarding `O=[N+]([O-])c1cnc(N(CCO)CCO)s1`, the GI50 in assay [1] was > 100 µM (inactive); in assay [2], > 100 µM (inactive); in assay [3] it was over 100 µM; in assay [14] it was > 100 µM (inactive); in [5], > 100 µM (inactive); in assay [6], > 100 µM (inactive). The GI50 in assay [7], in assay [8], in assay [15], in [9], in assay [16] and in assay [11] was > 100 µM (inactive) each time. Further, the GI50 in assay [12] and in assay [13] was > 100 µM (inactive) throughout.
Take `NCCN1CCCCCc2ccccc21`: the GI50 in assay [1] is > 10 µM (inactive); in assay [2], > 10 µM (inactive); in assay [3], over 10 µM; in assay [14], > 10 µM (inactive); in [4], > 10 µM (inactive); in assay [5] it was > 10 µM (inactive). Also, the GI50 in assay [7], in assay [8], in assay [15], in [16], in assay [10] and in [11] was > 10 µM (inactive) each time. In addition, the GI50 in assay [12] and in [13] was > 10 µM (inactive) in each case.
Consider `COc1ccc(/C=C2\N/C(=N/N)N=C2Cl)cc1`, for which the GI50 in assay [1] was > 100 µM (inactive); in [2] it was > 100 µM (inactive); in assay [3], over 100 µM; in assay [14], > 100 µM (inactive); in assay [4], > 100 µM (inactive); in assay [5], > 100 µM (inactive). Further, the GI50 in [6], in assay [7], in [15], in assay [9], in assay [16] and in assay [10] was > 100 µM (inactive) each time. The GI50 in assay [11] and in assay [12] was > 100 µM (inactive) each time.
With `CN(C)Cc1cc(C(=O)/C=C/c2ccc(Cl)cc2Cl)cc(CN(C)C)c1O`, the GI50 was 3.77 µM (inactive) in assay [1]; 5.89 µM (inactive) in assay [2]; 3.17 µM in [3]; 2.07 µM (inactive) in assay [14]; 3.82 µM (inactive) in assay [4]; 1.48 µM (inactive) in assay [5]. The GI50 in [6] is 2.11 µM (inactive); in assay [7], 1.88 µM (inactive); in assay [8], 1.46 µM (inactive); in [15], 1.75 µM (inactive); in assay [9], 15.2 µM (inactive); in assay [16], 2.33 µM (inactive). The GI50 in [10] is 3.85 µM (inactive); in assay [11], 2.81 µM (inactive); in assay [12] it was 3.52 µM (inactive).
